# Measured values: patent publication US20120148492A1, “BISPHOSPHONIC ACID DERIVATIVE AND COMPOUND THEREOF LABELED WITH RADIOACTIVE METAL NUCLIDE” (FUJIFILM RI PHARMA CO., LTD., priority 2009, published 2012)
# Key:
# [1] = Rat in vivo distribution experiment; conditions: for Blood radioactivity / Bone radioactivity / Kidney radioactivity / Large intestine radioactivity / Liver radioactivity / Muscle radioactivity / Small intestine radioactivity / Spleen radioactivity / Bone/blood: Wistar male rats; for Blood radioactivity / Bone radioactivity / Kidney radioactivity / Large intestine radioactivity / Liver radioactivity / Muscle radioactivity / Small intestine radioactivity / Spleen radioactivity: tail vein; for Bone/blood: ratio of radioactivity accumulation
# Experimental: Subsequently, 15, 30, 60, 120, and 240 minutes after administration, the rats were sacrificed, organs were excised, and the weight and the radioactivity of each organ were measured. The measurement values were calculated as % I.D./g tissue weight, which is the radioactivity in each tissue divided by the tissue weight, as the ratio with respect to the dose.
# [2] = Wistar male rats, 18.5 to 37 MBq tail vein, from 60 minutes after administration
# Experimental: To Wistar male rats, 68Ga-NOTA-alendronate and 99m Tc-MDP were each administered into the rat tail vein in amounts of 18.5 to 37 MBq under anesthesia. Then, 60 and 180 minutes after administration, images were taken by PET/CT or a SPECT camera.
# [3] = system: local bone metastasis model (human prostate cancer-derived cells transplanted into the right tibia); conditions: local bone metastasis model mouse, approximately 6.0 MBq, from 60 minutes after administration
# Experimental: Human prostate cancer-derived cells were transplanted into the right tibia of a mouse to produce a local bone metastasis model. To this model mouse, approximately 6.0 MBq of 68Ga-NOTA-alendronate was administered into the […] under anesthesia. An image was taken by PET/CT 60 minutes after administration.
# [4] = In vivo distribution of 68Ga-DOTA-alendronate in rats; design: species or system rat; conditions: for Blood radioactivity / Bone radioactivity / Kidney radioactivity / Large intestine radioactivity / Liver radioactivity / Muscle radioactivity / Small intestine radioactivity / Spleen radioactivity / Bone/blood: Wistar male rats, 120 minutes after drug administration; for Blood radioactivity / Bone radioactivity / Kidney radioactivity / Large intestine radioactivity / Liver radioactivity / Muscle radioactivity / Small intestine radioactivity / Spleen radioactivity: tail vein; for Bone/blood: ratio of radioactivity accumulation
# Experimental: To groups, each containing three Wistar male rats, 0.2 mL of each of 68Ga-DOTA-alendronate and 99mTc-MDP (product name: Techne MDP injection, manufactured by FUJIFILM RI Pharma Co., Ltd., 740 MBq/2 mL), each diluted to 12.3 to 19.8 MBq/mL, was administered into the rat tail vein under anesthesia. Then, 120 minutes after administration, the rats were sacrificed, organs were excised, and the weight and the radioactivity of each organ were measured. The measurement values were calculated as % I.D./g tissue weight, which is the radioactivity in each tissue divided by the tissue weight, as the ratio with respect to the dose.
compound,measurement,setting,value
O=C([O-])CN1CCN(CC(=O)[O-])CCN(C(CCC(=O)NCCCC(O)(P(=O)(O)O)P(=O)(O)O)C(=O)[O-])CC1.[68Ga+3] (stereo not drawn) [68Ga-NOTA-alendronate],Blood radioactivity,[1]; 15 min after administration,0.399 % I.D./g
same,Bone radioactivity,[1]; 15 min after administration,3.64 % I.D./g
same,Kidney radioactivity,[1]; 15 min after administration,3.43 % I.D./g
same,Large intestine radioactivity,[1]; 15 min after administration,0.132 % I.D./g
same,Liver radioactivity,[1]; 15 min after administration,0.081 % I.D./g
same,Muscle radioactivity,[1]; 15 min after administration,0.085 % I.D./g
same,Small intestine radioactivity,[1]; 15 min after administration,0.121 % I.D./g
same,Spleen radioactivity,[1]; 15 min after administration,0.103 % I.D./g
same,Blood radioactivity,[1]; 30 min after administration,0.145 % I.D./g
same,Bone radioactivity,[1]; 30 min after administration,4.17 % I.D./g
same,Kidney radioactivity,[1]; 30 min after administration,0.89 % I.D./g
same,Large intestine radioactivity,[1]; 30 min after administration,0.054 % I.D./g
same,Liver radioactivity,[1]; 30 min after administration,0.039 % I.D./g
same,Muscle radioactivity,[1]; 30 min after administration,0.033 % I.D./g
same,Small intestine radioactivity,[1]; 30 min after administration,0.070 % I.D./g
same,Spleen radioactivity,[1]; 30 min after administration,0.046 % I.D./g
same,Blood radioactivity,[1]; 60 min after administration,0.030 % I.D./g
same,Bone radioactivity,[1]; 60 min after administration,4.59 % I.D./g
same,Kidney radioactivity,[1]; 60 min after administration,0.43 % I.D./g
same,Large intestine radioactivity,[1]; 60 min after administration,0.023 % I.D./g
same,Liver radioactivity,[1]; 60 min after administration,0.020 % I.D./g
same,Muscle radioactivity,[1]; 60 min after administration,0.008 % I.D./g
same,Small intestine radioactivity,[1]; 60 min after administration,0.056 % I.D./g
same,Spleen radioactivity,[1]; 60 min after administration,0.021 % I.D./g
same,Blood radioactivity,[1]; 120 min after administration,0.005 % I.D./g
same,Bone radioactivity,[1]; 120 min after administration,5.19 % I.D./g
same,Kidney radioactivity,[1]; 120 min after administration,0.37 % I.D./g
same,Large intestine radioactivity,[1]; 120 min after administration,0.019 % I.D./g
same,Liver radioactivity,[1]; 120 min after administration,0.015 % I.D./g
same,Muscle radioactivity,[1]; 120 min after administration,0.004 % I.D./g
same,Small intestine radioactivity,[1]; 120 min after administration,0.073 % I.D./g
same,Spleen radioactivity,[1]; 120 min after administration,0.014 % I.D./g
same,Blood radioactivity,[1]; 240 min after administration,0.003 % I.D./g
same,Bone radioactivity,[1]; 240 min after administration,4.75 % I.D./g
same,Kidney radioactivity,[1]; 240 min after administration,0.28 % I.D./g
same,Large intestine radioactivity,[1]; 240 min after administration,0.077 % I.D./g
same,Liver radioactivity,[1]; 240 min after administration,0.016 % I.D./g
same,Muscle radioactivity,[1]; 240 min after administration,0.002 % I.D./g
same,Small intestine radioactivity,[1]; 240 min after administration,0.011 % I.D./g
same,Spleen radioactivity,[1]; 240 min after administration,0.012 % I.D./g
same,ratio of radioactivity accumulation in bone to that in blood,"[1]; compared to 99mTc-MDP, from an early stage after administration",dominantly improved
same,accumulation in bone,"[1]; compared to 99mTc-MDP, rat",equivalent value of accumulation in bone
same,clearance of radioactivity from blood,"[1]; compared to 99mTc-MDP, rat",more rapid clearance of radioactivity from blood
same,non-specific accumulation in other organs,"[1]; rat, similar amount to that of 99mTc-MDP",almost no non-specific accumulation
same,Bone/blood,[1]; 15 min after administration,9
same,Bone/blood,[1]; 30 min after administration,29
same,Bone/blood,[1]; 60 min after administration,155
same,Bone/blood,[1]; 120 min after administration,958
same,Bone/blood,[1]; 240 min after administration,1696
same,visualization of bone in images,[2],bone is clearly visualized
same,visualization of bone and bone lesion in PET/CT image,[3],bone and the arrowed bone lesion are clearly visualized
O=C([O-])CN1CCN(CC(=O)[O-])CCN(CC(=O)NCCCC(O)(P(=O)(O)O)P(=O)(O)O)CCN(CC(=O)[O-])CC1.[68Ga+3] [68Ga-DOTA-alendronate],radioactivity accumulation in bone,"[4]; 120 minutes after administration, as 99mTc-MDP did",high radioactivity accumulation in bone
same,Blood radioactivity,[4],0.024 % I.D./g
same,Bone radioactivity,[4],4.54 % I.D./g
same,Kidney radioactivity,[4],0.26 % I.D./g
same,Large intestine radioactivity,[4],0.055 % I.D./g
same,Liver radioactivity,[4],0.018 % I.D./g
same,Muscle radioactivity,[4],0.005 % I.D./g
same,Small intestine radioactivity,[4],0.522 % I.D./g
same,Spleen radioactivity,[4],0.020 % I.D./g
same,clearance from blood,"[4]; rat, versus 99mTc-MDP",delayed clearance from blood
same,Bone/blood,[4],189
same,ratio of radioactivity accumulation in bone/blood,"[4]; two hours after administration, versus 99mTc-MDP",no improvement
O.O.O=P([O-])([O-])CP(=O)([O-])[O-].[99Tc+4] [99mTc-MDP],Blood radioactivity,[1]; 15 min after administration,0.415 % I.D./g
same,Bone radioactivity,[1]; 15 min after administration,3.25 % I.D./g
same,Kidney radioactivity,[1]; 15 min after administration,2.84 % I.D./g
same,Large intestine radioactivity,[1]; 15 min after administration,0.121 % I.D./g
same,Liver radioactivity,[1]; 15 min after administration,0.086 % I.D./g
same,Muscle radioactivity,[1]; 15 min after administration,0.085 % I.D./g
same,Small intestine radioactivity,[1]; 15 min after administration,0.134 % I.D./g
same,Spleen radioactivity,[1]; 15 min after administration,0.107 % I.D./g
same,Blood radioactivity,[1]; 30 min after administration,0.171 % I.D./g
same,Bone radioactivity,[1]; 30 min after administration,3.41 % I.D./g
same,Kidney radioactivity,[1]; 30 min after administration,1.02 % I.D./g
same,Large intestine radioactivity,[1]; 30 min after administration,0.062 % I.D./g
same,Liver radioactivity,[1]; 30 min after administration,0.048 % I.D./g
same,Muscle radioactivity,[1]; 30 min after administration,0.036 % I.D./g
same,Small intestine radioactivity,[1]; 30 min after administration,0.093 % I.D./g
same,Spleen radioactivity,[1]; 30 min after administration,0.056 % I.D./g
same,Blood radioactivity,[1]; 60 min after administration,0.044 % I.D./g
same,Bone radioactivity,[1]; 60 min after administration,3.97 % I.D./g
same,Kidney radioactivity,[1]; 60 min after administration,0.62 % I.D./g
same,Large intestine radioactivity,[1]; 60 min after administration,0.020 % I.D./g
same,Liver radioactivity,[1]; 60 min after administration,0.029 % I.D./g
same,Muscle radioactivity,[1]; 60 min after administration,0.010 % I.D./g
same,Small intestine radioactivity,[1]; 60 min after administration,0.081 % I.D./g
same,Spleen radioactivity,[1]; 60 min after administration,0.027 % I.D./g
same,Blood radioactivity,[1]; 120 min after administration,0.018 % I.D./g
same,Bone radioactivity,[1]; 120 min after administration,4.07 % I.D./g
same,Kidney radioactivity,[1]; 120 min after administration,0.36 % I.D./g
same,Large intestine radioactivity,[1]; 120 min after administration,0.053 % I.D./g
same,Liver radioactivity,[1]; 120 min after administration,0.022 % I.D./g
same,Muscle radioactivity,[1]; 120 min after administration,0.005 % I.D./g
same,Small intestine radioactivity,[1]; 120 min after administration,0.299 % I.D./g
same,Spleen radioactivity,[1]; 120 min after administration,0.019 % I.D./g
same,Blood radioactivity,[1]; 240 min after administration,0.012 % I.D./g
same,Bone radioactivity,[1]; 240 min after administration,4.25 % I.D./g
same,Kidney radioactivity,[1]; 240 min after administration,0.35 % I.D./g
same,Large intestine radioactivity,[1]; 240 min after administration,0.467 % I.D./g
same,Liver radioactivity,[1]; 240 min after administration,0.019 % I.D./g
same,Muscle radioactivity,[1]; 240 min after administration,0.004 % I.D./g
same,Small intestine radioactivity,[1]; 240 min after administration,0.056 % I.D./g
same,Spleen radioactivity,[1]; 240 min after administration,0.019 % I.D./g
same,Bone/blood,[1]; 15 min after administration,8
same,Bone/blood,[1]; 30 min after administration,20
same,Bone/blood,[1]; 60 min after administration,91
same,Bone/blood,[1]; 120 min after administration,228
same,Bone/blood,[1]; 240 min after administration,358
same,Blood radioactivity,[4],0.021 % I.D./g
same,Bone radioactivity,[4],4.38 % I.D./g
same,Kidney radioactivity,[4],0.44 % I.D./g
same,Large intestine radioactivity,[4],0.015 % I.D./g
same,Liver radioactivity,[4],0.024 % I.D./g
same,Muscle radioactivity,[4],0.007 % I.D./g
same,Small intestine radioactivity,[4],0.224 % I.D./g
same,Spleen radioactivity,[4],0.020 % I.D./g
same,Bone/blood,[4],209
